The data set in a line: Pharmacokinetics in CD-1 mice. Type of data set: in vivo, mouse. The settings on record: subcutaneous injection, same dose, CD-1 mice.

Turning to `CC[C@H](C)[C@H](NC(=O)[C@H](Cc1ccccc1)NC(=O)[C@H](CCC(=O)O)NC(=O)[C@H](CCCCNC(=O)COCCOCCNC(=O)COCCOCCNC(=O)CC[C@H](NC(=O)CCCCCCCCCCCCCCCCC(=O)O)C(=O)O)NC(=O)[C@H](C)NC(=O)[C@H](C)NC(=O)[C@H](CCC(N)=O)NC(=O)CNC(=O)[C@H](CCC(=O)O)NC(=O)[C@H](CC(C)C)NC(=O)[C@H](Cc1ccc(O)cc1)NC(=O)[C@H](CO)NC(=O)[C@H](CO)NC(=O)[C@@H](NC(=O)[C@H](CC(=O)O)NC(=O)[C@H](CO)NC(=O)[C@@H](NC(=O)[C@H](Cc1ccccc1)NC(=O)[C@@H](NC(=O)CNC(=O)[C@H](CCC(=O)O)NC(=O)C(C)(C)NC(=O)[C@@H](N)Cc1cnc[nH]1)[C@@H](C)O)[C@@H](C)O)C(C)C)C(=O)N[C@@H](C)C(=O)N[C@@H](Cc1c[nH]c2ccccc12)C(=O)N[C@@H](CC(C)C)C(=O)N[C@H](C(=O)N[C@@H](CCCNC(=N)N)C(=O)NCC(=O)N[C@@H](CCCNC(=N)N)C(=O)NCC(=O)O)C(C)C` [Semaglutide, reference compound], the “Plasma half-life relative to SM-102” value is reported as “comparable”.

These data come from PMC8975272, “Novel glucagon-like peptide-1 analogue exhibits potency-driven G-protein biased agonism with promising effects on diabetes and diabetic dry eye syndrome” (Bioengineered, 2022).
